No end group written: not given here.
Tests used:
[1] = target: T1, IR (Homo sapiens, UniProt P06213); assay: Phage ELISA, binding of phage-displayed peptides to IR
T1 construct: composed of the extracellular domains of both the α and β chains of the natural receptor; made in house; background b13 names human embryonic kidney 293 cells for the Bass et al. construct
Method: Amino acid sequences comprising the motif of Formulas 1 through 10. […] Fifty microliters of this solution was added to an appropriate number of wells in a 96-well microtiter plate (MaxiSorp plates, Nunc) and incubated overnight at 4°C. […] To isolate specific binders, each library was panned against a soluble form of the human IR. This IR is composed of the extracellular domains of both the α and β chains of the natural receptor, as well as the constant domain from immunoglobulin Fc, retaining the β-α-α-β structure described above. Because the IR is expressed in a eukaryotic system, disulfide bond formation and glycosylation patterns should mimic the wild-type receptor. The details of this recombinant protein construct are described in Bass et al. (1996). Phage ELISA. […] The wells were blocked with 200 µl of MPBS for 1.5 h at RT. […] Peptides were added as noted below and allowed to incubate at RT for 3 h. The plates were washed 3 times with PBST. A solution of 1:3000 diluted HRP:Anti-M13 conjugate at 100 µl per well of was added for 1 h. Following a repeat of the washing, 100 µl of ABTS was added for 15-30 min. […] Phage ELISA. […] Peptides were added as noted below and allowed to incubate at RT for 3 h. […] A solution of 1:3000 diluted HRP:Anti-M13 Conjugate at 100 µl per well of was added for 1 h. Following a repeat of the washing, 100 µl of ABTS was added for 15-30 min. The OD405 was measured using a SpectraMax 340 Microplate Spectrophotometer.

[2] = test system: adipocytes; assay: 3H-glucose uptake into adipocytes (fat cell assay, FFC); format: cell-based, Mouse; conditions: Subjective ranking; basal and sub maximal insulin; includes series A
[3] = target: T1, IR; assay: Phage ELISA, competition of phage binding by soluble synthetic peptides, IR-coated wells; conditions: Insulin Receptor
Method: (§2) Phage ELISA. […] The wells were blocked with 200 µl of MPBS for 1.5 h at RT. Phage were added at 100 µl per well. Peptides were added as noted below and allowed to incubate at RT for 3 h. The plates were washed 3 times with PBST. A solution of 1:3000 diluted HRP:Anti-M13 conjugate at 100 µl per well of was added for 1 h. Following a repeat of the washing, 100 µl of ABTS was added for 15-30 min.
(§3) Peptide Competition. […] Twenty microliters of the stock synthetic-peptide solution was added to Row A. A series of 20 µl into 100 µl dilutions were performed until Row G. Twenty microliters were discarded from Row G to maintain 100 µl per well. Row H was reserved as no peptide wells. […] The volume was maintained by the addition of 18 µl of the phage solution to Row A.
(§4) Phage ELISA. […] The wells were blocked with 200 µl of 2% (w/v) Carnation non-fat dry milk in PBS for 1.5 h at RT. Phage were added at 100 µl per well. Peptides were added as noted below and allowed to incubate at RT for 3 h. The plates were washed 3X with PBST. A solution of 1:3000 diluted HRP:Anti-M13 Conjugate at 100 µl per well of was added for 1 h. Following a repeat of the washing, 100 µl of ABTS was added for 15-30 min. The OD405 was measured using a SpectraMax 340 Microplate Spectrophotometer.
(§5) Peptide Competition. Peptide Competition Curves were produced during the phage ELISA across rows in triplicate. The stock synthetic peptide solution was added to Column 12 so that the total volume totaled 150 µl (additional phage solution was added when necessary). A serial dilution was made by transferring 50 µl from Column 12 into 100 µl in Column 11, 50 µl from Column 11 into 100 µl in Column 10, and continuing the serial dilution until Column 2. Fifty microliters were discarded from Column 2 to maintain 100 µl per well. Column 1 was reserved as no peptide wells.
(§6) A p53-like peptide that binds to MDM2 was used as a negative control.

[4] = target: T2, IGF-1R (Homo sapiens, UniProt P08069); assay: Phage ELISA, competition of phage binding by soluble synthetic peptides, IGF-1R-coated wells; conditions: IGF Receptor, H2 Phage
T2 construct: Soluble IGF-1R was obtained from R&D Systems; purchased R&D Systems 391-GR/CF
Method: as §2, §3, §4, §5, §6

[5] = target: T2, IGF-1R; assay: Heterogeneous time-resolved fluorescence (Eu) competitive binding assay on IGF-1R
Method: The TRFD assay format is well established, sensitive, and quantitative (Tompkins et al., 1993).
(§1) In these assays, soluble IGF-1 receptor is coated on the surface of microtiter wells, blocked by PBS containing milk and BSA, and then incubated with biotinylated peptide or rVab. Unbound bP is then washed away and saEu is added to complex with receptor-bound bP. Upon addition of the acidic enhancement solution, the bound europium is released as free Eu^+3 which rapidly forms a highly fluorescent and stable complex with components of the enhancement solution.
The plates were blocked with PBS containing 2% non-fat milk and 0.05% BSA for 2 h at RT, followed by three PBS washes. […] The plates were then washed 5 times with TTBS (TBS buffer containing Tween-20; Wallac) and tapped dry.

[6] = target: T3, Insulin receptor (Homo sapiens, UniProt P06213); assay: Heterogeneous time-resolved fluorescence assay (TRFA) on insulin receptor; format: binding
T3 construct: composed of the extracellular domains of both the α and β chains of the natural receptor; made in house; background b13 names human embryonic kidney 293 cells for the Bass et al. construct
Method: In this assay, saEu forms a ternary complex with bP and IR (i.e., IR:bP:saEu complex). The TRFD assay format is well established, sensitive, and quantitative (Tompkins et al., 1993). The assay can use a single-chain antibody or a biotinylated peptide.
as §1, with “IR” for “IGF-1 receptor”, “a solution of 0.5% BSA and 2% non-fat” for “PBS containing”, “in PBS,” for “and BSA,”, “Eu^3+” for “Eu^+3”, “solution. The IR:bP bound saEu is then converted into its highly fluorescent state and detected by a detector such as Wallac Victor II (EG&G Wallac, Inc.)” for “solution.”
• a. Heterogeneous Time-Resolved Fluorescence Assay. […] The plates were blocked with TBS containing 2% milk and 0.5% BSA for 1 h at RT followed by three TBS washes. […] After TBS wash, europium-labeled streptavidin at 1 µg/ml in assay buffer (100 mM Tris-HCl, pH 7.8; 150 mM NaCl; 0.5% BSA; 0.05% bovine Ig; 0.05% NaN3; 0.01% Tween-20) was added to the plates and incubated for 1 h. To test binding of rVab antibodies to IR, Eu-labeled rVab antibodies in assay buffer were added to the plates and incubated for 2 h to overnight. After incubation with Eu-labeled streptavidin (for peptide test) or europium-labeled rVabs, the plates were washed 5 times with Tris-buffered saline (pH 7.5) containing 0.1 % Tween-20 (TTBS) and tapped dry. Sixty microliters of EG&G Wallac enhancement solution (100 mM acetone-potassium hydrogen pthalate, pH 3.2; […] 2-naphtyltrifluoroacetate; […] tri(n-octyl)-phosphine oxide; 0.1 % Triton X-100) was added into each well, and the plates were placed onto a shaker for 20 min at RT. […] Homogeneous Time-Resolved Fluorescence Assay. […] For library screening, 20 µM of small organic molecules in 2 % DMSO are included in the mixture.

[7] = Precipitate in diluted peptide stock prior to adding to the fat cell assay; solubility under assay conditions; format: physicochemical; conditions: diluted stock prior to adding to assay
[8] = target: human IGF-1 receptor (HIGF-1R) (Homo sapiens, UniProt P08069); assay: 125I-IGF-1 competition binding assay on solubilised purified receptor
[9] = test system: FDCP2 cells (NIH) which express IGF-1R; assay: FDCP2 cell proliferation (WST-1), agonism; format: cell-based; conditions: not against IGF-1 R- cells
Method: Agonistic and antagonistic activities of the IGF-1-specific peptides were tested in FDCP2 cells (NIH) which express IGF-1R. […] Agonism activity assays were performed in a total volume of 100 µl in 96 well plates (flat bottom).
Proliferation assays were performed using WST-1 reagent. The WST-1 tetrazolium salt (slightly red) is cleaved to formazan (dark red) by the succinate-tetrazolium reductase system, which is active only in viable cells. An increase in the number of cells results in an increase in the overall activity of the dehydrogenase which results in a higher absorbance at 450 nm. […] Proliferation was measured by absorbance at 450 nm.

[10] = target: T2, IGF-1R; assay: Competitive phage ELISA with IGF-1 on IGF-1R; format: binding
Method: For IC50 determinations in a competitive ELISA, microtiter plates were coated with IGF-1R and blocked as described. Phage were prepared as described. Prior to addition of phage to plates, the peptide or recombinant variable antibody or fragment ("rVab"), or an appropriate control, was diluted in PBS and added to duplicate wells (100 µl/well). After incubation for 1 h at RT, the prepared phage were added to each well (100 µl/well) without removing the peptide or rVab solution. After incubation for 1 h at RT, the wells were washed and the color developed as described above.
The clones were next analyzed for binding to the receptor's active site (Figures 20A and 20B).
For IC50 determinations, microtiter plates were coated with IGF-1R and blocked as described. Phage and soluble rVabs were prepared as described above. […] After incubation for 1 h at RT, the wells were washed and the color was developed as described above.

T1 sequence (P06213 28-758 limits assumed): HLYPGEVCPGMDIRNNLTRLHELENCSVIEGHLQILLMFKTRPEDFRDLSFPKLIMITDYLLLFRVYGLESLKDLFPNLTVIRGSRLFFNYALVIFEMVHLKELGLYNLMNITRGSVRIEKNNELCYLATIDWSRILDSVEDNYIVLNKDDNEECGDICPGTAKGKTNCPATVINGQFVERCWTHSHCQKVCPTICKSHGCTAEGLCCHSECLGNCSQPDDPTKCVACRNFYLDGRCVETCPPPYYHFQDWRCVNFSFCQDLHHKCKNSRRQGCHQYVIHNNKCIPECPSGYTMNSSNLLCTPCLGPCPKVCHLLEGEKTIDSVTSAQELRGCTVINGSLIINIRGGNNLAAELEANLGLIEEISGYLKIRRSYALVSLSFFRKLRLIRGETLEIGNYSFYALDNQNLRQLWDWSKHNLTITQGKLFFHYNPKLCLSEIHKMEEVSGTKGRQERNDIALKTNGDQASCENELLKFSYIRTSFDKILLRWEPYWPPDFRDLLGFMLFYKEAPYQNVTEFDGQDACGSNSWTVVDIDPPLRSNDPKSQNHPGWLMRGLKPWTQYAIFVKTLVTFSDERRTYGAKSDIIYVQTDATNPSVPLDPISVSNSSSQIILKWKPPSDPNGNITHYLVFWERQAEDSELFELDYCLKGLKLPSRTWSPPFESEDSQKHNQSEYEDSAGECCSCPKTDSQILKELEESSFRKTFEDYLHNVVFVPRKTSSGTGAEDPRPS
T1 sequence (P06213 763-956 limits assumed): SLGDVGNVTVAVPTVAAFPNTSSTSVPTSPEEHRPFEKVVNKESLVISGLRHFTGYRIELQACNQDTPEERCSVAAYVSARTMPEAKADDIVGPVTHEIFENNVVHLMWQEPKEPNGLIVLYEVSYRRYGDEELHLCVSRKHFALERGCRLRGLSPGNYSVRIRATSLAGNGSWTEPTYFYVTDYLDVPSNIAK
T2 sequence (P08069 31-736 limits assumed): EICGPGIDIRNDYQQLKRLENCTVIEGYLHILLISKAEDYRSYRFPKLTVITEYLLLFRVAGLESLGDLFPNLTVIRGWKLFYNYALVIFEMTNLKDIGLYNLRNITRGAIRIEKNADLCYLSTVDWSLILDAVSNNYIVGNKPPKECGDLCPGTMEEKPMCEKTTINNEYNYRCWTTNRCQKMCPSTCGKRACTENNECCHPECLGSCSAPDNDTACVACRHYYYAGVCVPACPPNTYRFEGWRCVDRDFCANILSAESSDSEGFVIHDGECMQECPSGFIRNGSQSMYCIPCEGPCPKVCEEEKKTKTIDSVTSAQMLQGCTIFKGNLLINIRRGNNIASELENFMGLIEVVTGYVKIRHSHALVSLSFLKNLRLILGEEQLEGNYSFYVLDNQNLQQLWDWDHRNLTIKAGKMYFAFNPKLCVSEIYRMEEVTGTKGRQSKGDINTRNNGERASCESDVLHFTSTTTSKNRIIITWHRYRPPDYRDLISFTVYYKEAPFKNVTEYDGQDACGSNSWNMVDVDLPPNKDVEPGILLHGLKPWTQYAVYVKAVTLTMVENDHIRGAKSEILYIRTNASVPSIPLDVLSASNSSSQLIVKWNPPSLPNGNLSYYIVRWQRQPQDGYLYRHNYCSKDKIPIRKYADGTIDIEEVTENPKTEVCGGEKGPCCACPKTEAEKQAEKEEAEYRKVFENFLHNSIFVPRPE
T2 sequence (P08069 741-935 limits assumed): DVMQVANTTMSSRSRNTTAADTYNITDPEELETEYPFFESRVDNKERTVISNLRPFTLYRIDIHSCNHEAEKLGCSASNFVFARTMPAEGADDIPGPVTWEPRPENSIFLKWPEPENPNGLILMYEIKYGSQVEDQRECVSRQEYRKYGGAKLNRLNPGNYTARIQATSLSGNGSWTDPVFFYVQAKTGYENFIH
T3 sequence (P06213 28-758 limits assumed): as the sequence (P06213 28-758 limits assumed) above
T3 sequence (P06213 763-956 limits assumed): as the sequence (P06213 763-956 limits assumed) above
Sequence of human IGF-1 receptor (HIGF-1R) (P08069 31-736 limits assumed): as the sequence (P08069 31-736 limits assumed) above
Sequence of human IGF-1 receptor (HIGF-1R) (P08069 741-1367 limits assumed): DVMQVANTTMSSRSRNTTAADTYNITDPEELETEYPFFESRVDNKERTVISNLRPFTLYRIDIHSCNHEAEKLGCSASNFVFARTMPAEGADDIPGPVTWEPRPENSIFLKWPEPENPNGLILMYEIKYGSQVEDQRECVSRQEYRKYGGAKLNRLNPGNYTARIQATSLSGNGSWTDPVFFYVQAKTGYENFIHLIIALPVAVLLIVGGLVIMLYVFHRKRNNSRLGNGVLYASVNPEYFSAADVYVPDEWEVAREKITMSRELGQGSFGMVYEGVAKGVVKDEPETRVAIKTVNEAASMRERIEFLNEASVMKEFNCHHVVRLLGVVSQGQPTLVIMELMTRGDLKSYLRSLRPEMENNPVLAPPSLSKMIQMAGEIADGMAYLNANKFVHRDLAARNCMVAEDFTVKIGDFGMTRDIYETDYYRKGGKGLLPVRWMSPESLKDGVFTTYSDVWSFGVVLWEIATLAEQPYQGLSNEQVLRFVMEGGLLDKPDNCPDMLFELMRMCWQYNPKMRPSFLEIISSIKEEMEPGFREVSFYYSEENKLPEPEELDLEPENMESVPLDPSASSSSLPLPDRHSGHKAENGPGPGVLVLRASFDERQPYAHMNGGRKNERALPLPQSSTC

| Molecule | binding to IR when expressed as phage [1] | Resp. [2] | n (Hill plot) ([3]; 20D3 Phage) | n (Hill plot) ([3]; H2 Phage) | n (Hill plot) [4] | binding of biotinylated peptide to IGF-1 R [5] | binding of biotinylated peptide to IR [6] | Comments (precipitation) [7] | affinity for HIGF-1R [8] | Ratio ([8]; Kd HIGF1R / Kd HIR) | activity toward IGF-1 R+ cells in cell culture [9] | inhibition of phage binding to immobilized IGF-1R by IGF-1 [10] | competition with binding of 12H10 to IR [6] |
| --- | --- | --- | --- | --- | --- | --- | --- | --- | --- | --- | --- | --- | --- |
| CC(C)[C@H](NC(=O)[C@H](Cc1ccccc1)NC(=O)[C@H](Cc1c[nH]c2ccccc12)NC(=O)[C@H](CC(=O)O)NC(=O)[C@H](Cc1ccc(O)cc1)NC(=O)[C@H](Cc1ccccc1)NC(=O)[C@H](CC(N)=O)NC(=O)[C@H](C)NC(=O)[C@H](C)NC(=O)[C@H](CC(=O)O)NC(=O)CNC(=O)[C@H](CS)NC(=O)[C@@H]1CCCN1C(=O)[C@H](CCCNC(=N)N)NC(=O)[C@H](C)NC(=O)[C@H](Cc1c[nH]c2ccccc12)NC(=O)[C@H](CS)NC(=O)[C@H](CC(=O)O)NC(=O)[C@H](CCCCN)NC(=O)[C@H](Cc1ccc(O)cc1)NC(=O)[C@@H](N)CC(=O)O)C(=O)N[C@@H](CCC(N)=O)C(=O)N[C@@H](CCC(N)=O)C(=O)N[C@@H](C)C(=O)N[C@@H](CO)C(=O)N[C@@H](CCCCN)C(=O)N[C@@H](CCCCNC(=O)CCCC[C@@H]1SC[C@@H]2NC(=O)N[C@@H]21)C(N)=O [Clone C1] | do not have detectable binding | 0 | 0.83 | 0.46 | 0.96 | nM range | micromolar range | Precipitates | high affinity | 0.1 |  |  |  |
| LCQRLGVGWPGWLSGWCA [Clone H5] |  |  |  |  |  |  |  |  |  |  | agonistic activity |  |  |
| WNTVDPFYHKLSELLREKK [Clone B6] | do not have detectable binding |  |  |  |  |  |  |  |  |  |  | could be inhibited with IGF-1 | do not compete |
